Values after ≈ are worked out from the molar mass of the structure shown. Read-outs that look alike come from different tables or passages of the source.
Test system: Pseudomonas aeruginosa
Experiment: standard agar inclusion test screen, minimum inhibitory concentration against Pseudomonas
Assay type: cell-based
Conditions: read-out: Minimum inhibitory concentrations (MIC)
Procedure: Compounds of this invention where R, R', R" and Y are hydrogen have antibacterial activity against a variety of bacteria and are especially active against Pseudomonas. Minimum inhibitory concentrations (MIC), as obtained in a standard agar inclusion test screen, range from 25 to 200 μg/ml against Pseudomonas aeruginosa.

[1] = standard agar inclusion test, Pseudomonas (aeruginosa)

| MIC [1] [µg/mL] | Compound | MIC (Pseudomonas aeruginosa) [µg/mL] |
| --- | --- | --- |
| 63 (≈ 186 µM) | NC[C@H]1O[C@H](O[C@H]2[C@H](O)[C@@H](O)[C@H](N)C[C@@H]2N)[C@H](N)[C@@H](S)[C@@H]1O [2-deoxy-4-O-(2,6-diamino-3-mercapto-2,3,6-trideoxy-α-D-glucopyranosyl)-D-streptamine] |  |
| 25 (≈ 73.9 µM) | NC[C@H]1O[C@H](O[C@H]2[C@H](O)[C@@H](O)[C@H](N)C[C@@H]2N)[C@H](N)[C@@H](O)[C@@H]1S [2-deoxy-4-O-(2,6-diamino-4-mercapto-2,4,6-trideoxy-α-D-glucopyranosyl)-D-streptamine] |  |
|  | NC[C@H]1O[C@H](O[C@H]2[C@H](O)[C@@H](O)[C@H](N)C[C@@H]2N)[C@H](N)[C@@H](O)[C@@H]1O [neamine, 2-deoxy-4-O-(2,6-diamino-2,6-dideoxy-α-D-glucopyranosyl)-D-streptamine, reference compound] | > 200 |
